What was measured:
[1] = molecular target: T1, PPAT (phosphoribosyl pyrophosphate amidotransferase) (Homo sapiens, UniProt Q06203); assay: glutamate production from glutamine and PRPP, glutamate assay kit; type: biochemical
[2] = molecular target: T1, PPAT (phosphoribosyl pyrophosphate amidotransferase); assay: PPAT activity assay, presumably as above; type: biochemical

T1 sequence (Q06203 12-517): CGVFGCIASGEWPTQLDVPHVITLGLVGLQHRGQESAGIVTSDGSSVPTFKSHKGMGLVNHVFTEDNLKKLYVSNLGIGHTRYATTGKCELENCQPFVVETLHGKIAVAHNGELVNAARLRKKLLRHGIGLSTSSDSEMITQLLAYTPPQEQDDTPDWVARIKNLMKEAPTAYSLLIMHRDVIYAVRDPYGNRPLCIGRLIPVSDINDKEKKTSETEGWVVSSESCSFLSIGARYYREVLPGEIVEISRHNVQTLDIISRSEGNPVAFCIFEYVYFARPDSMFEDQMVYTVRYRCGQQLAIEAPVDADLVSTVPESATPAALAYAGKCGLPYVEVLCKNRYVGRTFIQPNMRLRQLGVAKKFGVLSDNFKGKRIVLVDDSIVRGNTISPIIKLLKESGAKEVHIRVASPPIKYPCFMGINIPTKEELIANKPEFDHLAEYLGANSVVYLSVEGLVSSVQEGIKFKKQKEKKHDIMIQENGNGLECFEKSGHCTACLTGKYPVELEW

Row | IC50 [1] [µM] | IC50 [2] [µM] | Structure (SMILES)
1 | 7.5 |  | Cc1cc2nc3c(=O)[nH]c(=O)nc-3n(C[C@H](O)[C@H](O)[C@H](O)COP(=O)(O)O)c2cc1C [ZINC8551105, riboflavin 5′-monophosphate]
2 |  | 49.9 | Cc1cc2nc3c(=O)[nH]c(=O)nc-3n(C[C@H](O)[C@H](O)[C@H](O)CO)c2cc1C [riboflavin]
